Results on two molecules are retold here after patent publication US5512431A, “Methods of screening for nucleoside analogs that are incorporated by HIV reverse transcriptase and cause incorrect base pairing” (priority 1994, dated 1996).

One assay addresses T1, HIV-RT (HIV-1 M:B_HXB2R, UniProt P04585).
T1 construct: mature RT cut from Gag-Pol polyprotein (Pr160Gag-Pol)
The assay can be described thus: Incorporation of oxidized dCTP derivatives into gapped M13mp2 DNA by HIV-RT. The note with it: for Molecules incorporated by HIV-RT per molecule of template: 2 min incubation. It is filed as biochemical. On the procedure:
The purification of oxidized derivatives of dCTP is monitored by measuring incorporation into gapped DNA. The gapped DNA consists of a single-stranded circular M13mp2 DNA containing uracil residues annealed to a linear incomplete complementary strand lacking uracil so as to create a 361-nt gap spanning part of the lacZ gene (prepared as described in Feig and Loeb, Biochemistry 32:4466-73, 1993). The reaction mixture (0.02 ml) contains: 200 ng of gapped DNA, 60 mM Tris-HCl (pH 8.0), 10 mM KCl, 7 mM MgCl2, 1 mM dithiothreitol, 0.5 mM EDTA, 200 μM (each) dATP, dGTP and TTP, 1 μM α-^32 P!dCTP or modified dCTP (692 cpm/pmol), and 1.25 units of recombinant HIV-RT (Preston et al., Science 242:1168-1171, 1988) (1 unit is the amount of enzyme required to catalyze the incorporation of 1 nmol of dNTP into DNA in 1 h at 37° C.). The nucleotide bias in this reaction drives the incorporation of modified cytosine only at sites opposite guanosines in the lacZα gene. Samples are extracted once each with phenol and chloroform/isoamyl alcohol, 24:1, followed by ethanol precipitation in the presence of 400 mM NaCl and 10 μg of glycogen (as a coprecipitant). […]
The column fractions are used in place of dCTP for DNA synthesis reactions. […] Partially double-stranded DNA products are purified, and gap filling synthesis is completed using the Klenow fragment of E. coli DNA polymerase I. Incorporation of oxidized cytosine derivatives is quantified by scintillation counting and the toxicity of the fractions is assessed by comparing the transfection efficiency of DNA synthesized by using fractions containing the altered nucleotides to that of DNA synthesized with dCTP passed through the same column. The mutagenicity of each fraction is measured by scoring forward mutations in the lacZ gene for β-galactosidase (Kunkel, Proc. Natl. Acad Sci. USA 81:1494-1498, 1984).

The test system of the next assay is lacZ gene. The assay can be described thus: Forward mutation assay in lacZ of gapped M13mp2 DNA (reduced α-complementation) after transfection into E. coli. In kind it is cell-based. The note with it: for Transfection efficiency, plaques per ng: Table I, gap filled by pol-I1f; for Transfection efficiency, plaques per ng / Transfection efficiency (yield of transfectants) / Mutation frequency: with HIV-RT; for Mutation frequency: number of mutants in parentheses in Table I. The source says:
The column fractions are used in place of dCTP for DNA synthesis reactions. The DNA template is a double-stranded M13mp2 molecule with a 361-nt single-stranded gap spanning part of the lacZ gene for bacterial β-galactosidase. The uracil-containing strand is rapidly hydrolyzed upon transfection in E. coli, resulting in a 10^4 -fold preferential expression of the strand lacking uracil and preventing the repair of altered cytidines incorporated into the strand lacking uracil. DNA synthesis is catalyzed by HIV RT in the presence of 200 μM dATP, dGTP and TTP and 1 μM of each fraction from the reverse-phase column. Partially double-stranded DNA products are purified, and gap filling synthesis is completed using the Klenow fragment of E. coli DNA polymerase I. Incorporation of oxidized cytosine derivatives is quantified by scintillation counting and the toxicity of the fractions is assessed by comparing the transfection efficiency of DNA synthesized by using fractions containing the altered nucleotides to that of DNA synthesized with dCTP passed through the same column. The mutagenicity of each fraction is measured by scoring forward mutations in the lacZ gene for β-galactosidase (Kunkel, Proc. Natl. Acad Sci. USA 81:1494-1498, 1984).
Mutations produced by the incorporation of oxidized derivatives of dCTP into gapped DNA are identified by reduced α-complementation of β-galactosidase activity. Logarithmic-phase MC1061 hsdR, mcrR, araD, (139.increment.^- araABC^- leu) 7679.increment.lacX74, galU, galK, rspL, thi^- ! is prepared for electroporation by washing the cells four times with sterile H2 O. Cells are then pelleted and resuspended in a volume of H2 O equal to that of the packed cells. Fifty nanograms of the filled-gap DNA product is mixed with 300 μl of cells and subjected to electroporation using a Bio-Rad Gene Pulser ([…], 400 W, 2.0 KV, and time constants between 6.0 and 7.5). Samples are placed on ice and mixed with 1 ml of LB medium. Aliquots (10-40 μl) of the transfection mixtures are added to 3 ml of molten top agar (42° C.) consisting of 0.9% NaCl, 0.8% Bacto Agar, 0.08% 5-bromo-4-chloro-3-indolylβ-D-galactoside dissolved in dimethlyformamide, and 0.2 ml of CSH50 .increment.(proBlac)/F'+raD36, thi^-, ara^-, proAB, lacI^α Z^- .increment.m15! cells in logarithmic phase, and layered onto plates containing 30 ml of solidified M9 medium supplemented with 1.5% Bacto Agar and 15 mM isopropyl-β-D-thiogalactoside (IPTG). Phenotypes are confirmed by mixing mutant phage with an equal quantity of wild type M13mp2 phage and replating. Phage DNA is isolated (Kunkel, Proc. Natl. Sci. USA 81:1494-1498, 1984) and sequenced by the method of Sanger etal. (J. Mol. Biol. 125:225-246, 1978) using a 15-mer oligodeoxyribonucleotide primer complementary to the +179 to +194 segment of the lacZα coding sequence.
Mutagenic potential of γ is assessed by using a forward mutation assay. To reduce the frequency of mutations arising from the incorporation of noncomplementary nucleotides by HIV-RT, this incubation is performed for only 2 min. Under these conditions, HIV-RT incorporates approximately five molecules of γ or nine molecules of undamaged dCTP per molecule of template. The gapped DNA is then completely filled by pol-I1f (the large fragment of E. coli DNA polymerase I) using the four undamaged nucleotides as substrates. The transfection efficiencies and mutation frequencies are given in Table I. In reactions without HIV-RT, 1040 transfectants are obtained per ng DNA, whereas with HIV-RT and undamaged dCTP ("purified" by reverse-phase and strong-anion exchange chromatography) the yield is 165 transfectants per ng of DNA. Substitution of γ for dCTP further reduced transfection efficiency, 73 transfectants per ng of DNA. In the absence of HIV-RT the mutation frequency is 4.6×10^-4 (line 1, Table I). […]

In assay [1] the test system is mammalian DNA polymerase-β. The experiment in a line: Incorporation by mammalian DNA polymerase-β. It is filed as biochemical. On the procedure: (§1) Five different mammalian DNA polymerases have been identified, purified and characterized. These are designated as DNA polymerases α, β, γ, δ, ε based on their amino acid sequences, intracellular localization and presumed role in cellular DNA metabolism (Fry and Loeb, CRC Press, 1986). The ability of a human DNA polymerase to incorporate a deoxynucleoside triphosphates analogs is determined using a DNA template that corresponds to the sequence of the RNA template used to analyze incorporation by HIV RT. A direct comparison is made on the incorporation of nucleoside analogs in the triphosphate form using a human DNA polymerase with that of HIV RT.

The subject of assay [2] is mammalian DNA polymerase-α. The assay can be described thus: Incorporation by mammalian DNA polymerase-α. In kind it is biochemical. On the procedure:
as §1

Take `Nc1ccn([C@H]2C[C@H](O)[C@@H](COP(=O)(O)OP(=O)(O)OP(=O)(O)O)O2)c(=O)n1` [dCTP, reference compound]: the “Molecules incorporated by HIV-RT per molecule of template” value on HIV-RT was “nine”. Further, in the assay on lacZ gene, the “Transfection efficiency, plaques per ng” value was found to be 165 plaques per ng; the “Transfection efficiency (yield of transfectants)” value is 165 transfectants per ng of DNA; the Mutation frequency is listed as 11 × 10^-4. The “Increase of mutation frequency by reaction with HIV-RT and dCTP” value with lacZ gene (versus absence of HIV-RT) stood at 2.4 fold.
As for `Nc1nc(=O)n([C@H]2C[C@H](O)[C@@H](COP(=O)(O)OP(=O)(O)OP(=O)(O)O)O2)cc1O` [γ, 5-hydroxy-2'-deoxycytidine 5'-triphosphate], at HIV-RT, the “Molecules incorporated by HIV-RT per molecule of template” value is “approximately five”. On HIV-RT (relative to dCTP, gapped DNA), the “Efficiency of incorporation into DNA by HIV-RT, % of that for dCTP” value is “about 56%”. The “Incorporation by mammalian DNA polymerase-β relative to dCTP” value in assay [1] is given as 18%. For the same molecule, the “Mutations that were C→T transitions” value in the assay with lacZ gene (173 mutations, 92 mutants sequenced) came to 95.6%. Also, the “Observed substitutions that occur at cytosines” value in the assay on lacZ gene (178 of 181 substitutions, 92 mutants sequenced) was found to be 98.3%. For the same molecule, in the assay with lacZ gene, the “Transfection efficiency, plaques per ng” value turned out to be 73 plaques per ng; the “Transfection efficiency (yield of transfectants)” value was 73 transfectants per ng of DNA; the Mutation frequency is listed as 1200×10^-4. Further, the “Increase of mutation frequency” value in the assay with lacZ gene (average of five molecules of γ per template DNA, versus reaction with dCTP) turned out to be 109 fold. For the same molecule, in assay [2], the “Incorporation by mammalian DNA polymerase-α” value was “Neither species is incorporated appreciably”.
